Measurements reported in patent US9181236B2, “2-spiro-substituted iminothiazines and their mono-and dioxides as bace inhibitors, compositions and their use” (Merck Sharp & Dohme Corp., priority 2011, dated 2015).

The compounds below were run against soluble human BACE1 catalytic domain (Homo sapiens (Human), UniProt P56817) (assay: BACE1 HTRF FRET Assay). Conditions: Ki calculated from IC50 using the Cheng-Prusoff equation.
Assay type: biochemical
Excerpt: A homogeneous time-resolved FRET assay can be used to determine IC50 values for inhibitors of the soluble human BACE1 catalytic domain. This assay monitors the increase of 620 nm fluorescence that resulted from BACE1 cleavage of an APPswedish APP^swe mutant peptide FRET substrate (QSY7-[…]-Europium-amide). This substrate contains an N-terminal QSY7 moiety that serves as a quencher of the C-terminal Europium fluorophore (620 nm Em). In the absence of enzyme activity, 620 nm fluorescence is low in the assay and increased linearly over 3 hours in the presence of uninhibited BACE1 enzyme Inhibition of BACE1 cleavage of the QSY7-APP^swe-Eu substrate by inhibitors is manifested as a suppression of 620 nm fluorescence.
Reactions are initiated by addition of 10 μl of 600 nM QSY7-APP^swe-Eu substrate (200 nM final) to give a final reaction volume of 30 μl in a 384 well Nunc HTRF plate. The reactions are incubated at 30° C. for 1.5 hours. The 620 nm fluorescence is then read on a Rubystar HTRF plate reader (BMG Labtechnologies) using a 50 millisecond delay followed by a 400 millisecond acquisition time window Inhibitor IC50 values are derived from non-linear regression analysis of concentration response curves.

Chain of soluble human BACE1 catalytic domain (P56817 75-416): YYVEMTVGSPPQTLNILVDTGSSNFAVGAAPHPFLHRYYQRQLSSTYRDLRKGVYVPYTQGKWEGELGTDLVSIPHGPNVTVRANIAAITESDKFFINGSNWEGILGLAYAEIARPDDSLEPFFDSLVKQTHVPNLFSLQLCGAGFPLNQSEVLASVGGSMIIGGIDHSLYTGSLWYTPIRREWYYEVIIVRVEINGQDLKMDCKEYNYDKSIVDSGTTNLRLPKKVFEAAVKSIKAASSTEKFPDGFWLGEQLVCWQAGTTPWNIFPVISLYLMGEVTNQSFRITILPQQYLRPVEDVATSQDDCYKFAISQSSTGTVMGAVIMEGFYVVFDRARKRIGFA

Question: C[C@@]1(c2cc(NC(=O)c3ncc(Cl)cc3Cl)ccc2F)CS(=O)(=O)C2(CCCC2)C(=N)N1 [Example 18] was tested. Which Ki did it give?
Answer: 2.7 nM

Question: For C[C@@]1(c2cc(NC(=O)c3ncc(Cl)cc3Cl)ccc2F)CS(=O)(=O)C2(CCOCC2)C(=N)N1 [Example 31], which Ki is on record?
Answer: 4.1 nM

Question: For C[C@@]1(c2cc(NC(=O)c3ncc(Cl)cc3F)ccc2F)CS(=O)(=O)C2(CCOCC2)C(=N)N1 [Example 35a], which Ki is on record?
Answer: 6.5 nM

Question: Which Ki does the source give for C[C@@]1(c2cc(-c3cccc(C#N)c3)ccc2F)CS(=O)(=O)C2(CCCC2)C(=N)N1 [Example 36] here?
Answer: 1290 nM

Question: C[C@@]1(c2cc(-c3cncc(Cl)c3)ccc2F)CS(=O)(=O)C2(CCCC2)C(=N)N1 [Example 37] was tested. Which Ki did it give?
Answer: 459 nM

Question: Which Ki does the source give for C[C@@]1(c2cc(-c3cncc(C#N)c3)ccc2F)CS(=O)(=O)C2(CCCC2)C(=N)N1 [Example 38] here?
Answer: 939 nM

Question: Which Ki does the source give for COc1cccc2cc(-c3ccc(F)c([C@]4(C)CS(=O)(=O)C5(CCCC5)C(=N)N4)c3)n(C(=O)OC(C)(C)C)c12 [Example 39] here?
Answer: 1330 nM

Question: How did the Ki turn out when C[C@@]1(c2cc(-n3cc(-c4ccccc4)nn3)ccc2F)CS(=O)(=O)C2(CCC2)C(=N)N1 [Example 39a] was run?
Answer: 2320 nM

Question: C[C@@]1(c2cc(-n3cc(-c4cccnc4)nn3)ccc2F)CS(=O)(=O)C2(CCC2)C(=N)N1 [Example 39b] was tested. Which Ki did it give?
Answer: 8560 nM

Question: C[C@@]1(c2sc(-c3cncnc3)cc2Cl)CS(=O)(=O)C2(CCCC2)C(=N)N1 [Example 43] was tested. Which Ki did it give?
Answer: 73.1 nM

Question: C[C@@]1(c2sc(-c3cccc(-c4nnco4)c3)cc2Cl)CS(=O)(=O)C2(CCCC2)C(=N)N1 [Example 43a] was tested. Which Ki did it give?
Answer: 37 nM

Question: C[C@@]1(c2sc(-c3cncnc3)cc2Cl)CS(=O)(=O)C2(CCCCC2)C(=N)N1 [Example 47] was tested. Which Ki did it give?
Answer: 545 nM

Question: Which Ki does the source give for C[C@@]1(c2sc(-c3cncnc3)cc2Cl)CS(=O)(=O)C2(CCOCC2)C(=N)N1 [Example 51] here?
Answer: 688 nM

Question: Which Ki does the source give for COc1cncc(-c2cc(Cl)c([C@]3(C)CS(=O)(=O)C4(CCOCC4)C(=N)N3)s2)c1 [Example 53] here?
Answer: 555 nM

Question: For C[C@@]1(c2sc(-c3cncc(F)c3)cc2Cl)CS(=O)(=O)C2(CCOCC2)C(=N)N1 [Example 55], which Ki is on record?
Answer: 260 nM

Question: How did the Ki turn out when C[C@@]1(c2sc(-c3cccc(N4CCCC4)c3)cc2Cl)CS(=O)(=O)C2(CCOCC2)C(=N)N1 [Example 56] was run?
Answer: 5740 nM

Question: C[C@@]1(c2sc(-c3cccc(-c4nnco4)c3)cc2Cl)CS(=O)(=O)C2(CCOCC2)C(=N)N1 [Example 57a] was tested. Which Ki did it give?
Answer: 34.9 nM

Question: C[C@@]1(c2sc(-c3cncnc3)cc2Cl)CS(=O)(=O)C2(CCC2)C(=N)N1 [Example 60] was tested. Which Ki did it give?
Answer: 374 nM

Question: Which Ki does the source give for C[C@@]1(c2sc(-c3cncc(N4CCOCC4)c3)cc2Cl)CS(=O)(=O)[C@]2(CCOC2)C(=N)N1 [Example 62i] here?
Answer: 1660 nM

Question: CC(C)(O)c1cncc(-c2cc(Cl)c([C@]3(C)CS(=O)(=O)[C@]4(CCOC4)C(=N)N3)s2)c1 [Example 62m] was tested. Which Ki did it give?
Answer: 2420 nM

Question: How did the Ki turn out when CCc1cncc(-c2cc(Cl)c([C@]3(C)CS(=O)(=O)[C@@]4(CCOC4)C(=N)N3)s2)c1 [Example 63i] was run?
Answer: 1780 nM

Question: How did the Ki turn out when C[C@@]1(c2sc(-c3cncc(N4CCOCC4)c3)cc2Cl)CS(=O)(=O)[C@@]2(CCOC2)C(=N)N1 [Example 63j] was run?
Answer: 3690 nM

Question: How did the Ki turn out when C[C@@]1(c2sc(-c3ccnc(-c4ccccc4)c3)cc2Cl)CS(=O)(=O)[C@@]2(CCOC2)C(=N)N1 [Example 63k] was run?
Answer: 849 nM

Question: Which Ki does the source give for C[C@@]1(c2sc(-c3ccnc(-c4ccoc4)c3)cc2Cl)CS(=O)(=O)[C@@]2(CCOC2)C(=N)N1 [Example 63l] here?
Answer: 674 nM

Question: With C[C@@]1(c2sc(-c3ccnc(-c4cccs4)c3)cc2Cl)CS(=O)(=O)[C@@]2(CCOC2)C(=N)N1 [Example 63m] as the compound, how does the Ki read?
Answer: 986 nM

Question: For C[C@@]1(c2sc(C#CCCNS(C)(=O)=O)cc2Cl)CS(=O)(=O)C2(CCC2)C(=N)N1 [Example 77c], which Ki is on record?
Answer: 105 nM

Question: C[C@@]1(c2sc(C#CCN3CCOCC3)cc2Cl)CS(=O)(=O)C2(CCC2)C(=N)N1 [Example 77d] was tested. Which Ki did it give?
Answer: 2360 nM

Question: With C[C@@]1(c2sc(C(=O)NCc3cnoc3)cc2Cl)CS(=O)(=O)C2(CCCCC2)C(=N)N1 [Example 80] as the compound, how does the Ki read?
Answer: 249 nM

Question: With C[C@@]1(c2sc(C(=O)NCc3cnsn3)cc2Cl)CS(=O)(=O)C2(CCCCC2)C(=N)N1 [Example 80a] as the compound, how does the Ki read?
Answer: 144 nM
